For the experiment, the target named is T1, human EGF-R (Homo sapiens, UniProt P00533).
T1 construct: expressed in transfected cells; host or cells: F/L-HERc cells: murine IL-3-dependent FDC-P1 cells transduced with retroviral vector LXSN carrying human EGF-R cDNA (packaging line GP+E86)
Briefly: Inhibition of EGF-dependent proliferation of F/L-HERc cells. Type of experiment: cell-based. The note with it: F/L-HERc cells (murine IL-3-dependent line expressing human EGF-R), stimulated with EGF 20 ng/ml, 48 hours, Cell Titer 96 AQueous assay. The text has this:
A cell line of murine origin dependent on interleukin-3-(IL-3) which was genetically modified to express functional human EGF-R was used here. The proliferation of these cells known as F/L-HERc can therefore be stimulated either by murine IL-3 or by EGF (cf. von Rüden, T. et al. in EMBO J. 7, 2749-2756 (1988) and Pierce, J. H. et al. in Science 239, 628-631 (1988)).
The starting material used for the F/L-HERc cells was the cell line FDC-P1, the production of which has been described by Dexter, T. M. et al. in J. Exp. Med. 152, 1036-1047 (1980). Alternatively, however, other growth-factor-dependent cells may also be used (cf. for example Pierce, J. H. et al. in Science 239, 628-631 (1988), Shibuya, H. et al. in Cell 70, 57-67 (1992) and Alexander, W. S. et al. in EMBO J. 10, 3683-3691 (1991)). […]
In order to determine the inhibitory activity of the compounds according to the invention the relative cell number was measured in O.D. units using the Cell Titer 96™ AQueous Non-Radioactive Cell Proliferation Assay (Promega). […]

The record followed here is US20020082270A1, “Aminoquinazolines which inhibit signal transduction mediated by tyrosine kinases” (priority 2000, published 2002).

One may read the IC50 as the point on the concentration scale where inhibition reaches its midpoint. A higher IC50 goes with a need for much substance.

Each structure is given as a SMILES string.

T1 sequence (P00533 25-1210): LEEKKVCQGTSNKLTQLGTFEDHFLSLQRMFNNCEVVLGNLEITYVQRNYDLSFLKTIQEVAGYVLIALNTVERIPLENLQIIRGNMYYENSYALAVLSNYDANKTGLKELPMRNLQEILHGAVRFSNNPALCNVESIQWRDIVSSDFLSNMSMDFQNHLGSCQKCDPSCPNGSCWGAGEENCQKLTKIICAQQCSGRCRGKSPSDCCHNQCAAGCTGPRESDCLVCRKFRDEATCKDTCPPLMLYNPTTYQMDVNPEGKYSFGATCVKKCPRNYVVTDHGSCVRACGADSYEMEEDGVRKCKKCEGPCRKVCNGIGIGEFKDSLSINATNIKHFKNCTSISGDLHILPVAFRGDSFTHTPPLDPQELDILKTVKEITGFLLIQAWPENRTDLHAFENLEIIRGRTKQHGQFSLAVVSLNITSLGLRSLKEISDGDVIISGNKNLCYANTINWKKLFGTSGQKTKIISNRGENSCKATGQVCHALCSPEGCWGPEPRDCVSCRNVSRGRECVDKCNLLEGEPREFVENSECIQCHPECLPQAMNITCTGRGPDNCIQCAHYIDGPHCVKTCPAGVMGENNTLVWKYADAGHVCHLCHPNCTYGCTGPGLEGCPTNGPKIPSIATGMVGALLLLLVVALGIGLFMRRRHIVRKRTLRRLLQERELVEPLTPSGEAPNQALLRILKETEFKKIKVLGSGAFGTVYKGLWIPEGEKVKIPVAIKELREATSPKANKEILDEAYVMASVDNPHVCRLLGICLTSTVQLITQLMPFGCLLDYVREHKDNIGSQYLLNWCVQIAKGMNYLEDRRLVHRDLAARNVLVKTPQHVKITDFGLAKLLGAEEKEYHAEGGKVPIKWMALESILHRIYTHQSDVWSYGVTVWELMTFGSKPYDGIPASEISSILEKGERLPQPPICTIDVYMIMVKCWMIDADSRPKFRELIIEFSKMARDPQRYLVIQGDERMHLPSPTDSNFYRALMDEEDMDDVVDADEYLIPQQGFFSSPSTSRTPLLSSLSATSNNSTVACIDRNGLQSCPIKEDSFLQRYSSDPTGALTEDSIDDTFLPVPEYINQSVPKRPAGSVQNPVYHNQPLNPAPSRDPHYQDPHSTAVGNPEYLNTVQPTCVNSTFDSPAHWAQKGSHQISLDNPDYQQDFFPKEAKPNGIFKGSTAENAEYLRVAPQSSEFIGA

For the molecule `C=CC(=O)Nc1cc2c(N[C@H](C)c3ccccc3)ncnc2cc1OCCN1CCN(C2COC(=O)C2)CC1` (stereo partly drawn) [1 (2), 4-[(R)-(1-phenylethyl)amino]-7-{2-[4-(2-oxo-tetrahydrofuran-4-yl)-piperazin-1-yl]-ethoxy}-6-[(vinylcarbonyl)amino]-quinazoline], inhibition was half-maximal at 12 nM (IC50). This lies in the double-digit nanomolar range.
